Source: ChEMBL document CHEMBL3407482, “Synthesis and assessment of the antioxidant and antitumor properties of asymmetric curcumin analogues” (Eur J Med Chem, 2015)

Assays:
[1] = Antioxidant activity assessed as ROO. radical scavenging activity by TRAP assay; type: physicochemical
[2] = Antioxidant activity assessed as ABTS radical scavenging activity by spectrophotometry; type: physicochemical
[3] = Drug metabolism in rat plasma after 24 hrs by HPLC analysis; type: ADME, cell-free; details: read-out: Drug metabolism
[4] = Antiproliferative activity against human SMMC7721 cells after 72 hrs by MTT assay; type: functional, cell-based; details: SMMC-7721, 72 h
[5] = Antiproliferative activity against human PC3 cells after 72 hrs by MTT assay; type: functional, cell-based; details: PC-3, 72 h
[6] = Antioxidant activity assessed as DPPH radical scavenging activity by spectrophotometry; type: physicochemical
[7] = test system: MCF7; experiment: Antiproliferative activity against human MCF7 cells after 72 hrs by MTT assay; type: functional, cell-based; details: MCF7, 72 h
[8] = Antioxidant activity assessed as superoxide radical scavenging activity after 5 mins by nitrotetrazolium blue chloride assay; type: physicochemical
[9] = test system: PC-3; experiment: Ratio of curcumin IC50 to compound IC50 for human PC3 cells after 72 hrs by MTT assay; type: functional
[10] = test system: SMMC-7721; experiment: Ratio of curcumin IC50 to compound IC50 for human SMMC7721 cells after 72 hrs by MTT assay; type: functional
[11] = test system: MCF7; experiment: Ratio of curcumin IC50 to compound IC50 for human MCF7 cells after 72 hrs by MTT assay; type: functional
[12] = test system: Plasma; experiment: Stability in rat plasma after 24 hrs by HPLC analysis; type: ADME, cell-free

Row | Compound | IC50 [1] [µM] | IC50 [2] [µM] | metabolised at 24 h [3] [%] | IC50 [6] [µM] | IC50 [7] [µM] | IC50 [8] [µM] | Stability [12] | IC50 [4] [µM] | IC50 [5] [µM] | Ratio IC50 [9] | Ratio IC50 [10] | Ratio IC50 [11]
1 | COc1cc(/C=C/C(=O)/C=C/c2ccc(C)c(C)c2)ccc1O | 136 | 103 | – | 41.5 | 21.7 | 178 | – | 23.4 | – | – | – | –
2 | COc1ccc(/C=C/C(=O)/C=C/c2cc(OC)c(OC)c(OC)c2)cc1O | 118 | 99.5 | – | 34.4 | 40.3 | 164 | – | 11.5 | 34.9 | – | – | –
3 | COc1ccc(/C=C/C(=O)/C=C/c2ccc(O)c(OC)c2)cc1O | 123 | 105 | – | 46.3 | 56.5 | 169 | – | 21.6 | 61.3 | – | – | –
4 | CCOc1cc(/C=C/C(=O)/C=C/c2ccc(O)c(OC)c2)ccc1O | 97.2 | 80.6 | – | 31.6 | 41.9 | 122 | Unstable | 27.3 | 82.4 | – | – | –
5 | COc1ccc(O)c(/C=C/C(=O)/C=C/c2cc(OC)c(OC)c(OC)c2)c1 | 184 | 114 | – | 94.6 | 40.7 | 214 | – | 25.3 | 39.9 | – | – | –
6 | COc1cc(/C=C/C(=O)/C=C/c2ccc(C)c(C)c2)cc(OC)c1O | 113 | 113 | – | 32.6 | 52.8 | 156 | – | 13.6 | 25.3 | – | – | –
7 | COc1ccc(/C=C/C(=O)/C=C/c2cc(OC)c(O)c(OC)c2)cc1OC | 47.8 | 36.3 | – | 13.5 | 9.11 | 80.9 | – | 24.1 | 36.9 | – | – | –
8 | COc1cc(/C=C/C(=O)/C=C/c2cc(OC)c(OC)c(OC)c2)cc(OC)c1OC | > 4820 | > 4820 | – | > 4820 | 13.9 | > 4820 | Unstable | 16.6 | 42.1 | – | – | –
9 | O=C1O[C@H]([C@@H](O)CO)C(O)=C1O [ASCORBIC ACID] | 102 | 105 | – | 45.4 | – | 167 | – | – | – | – | – | –
10 | COc1cc(/C=C/C(=O)CC(=O)/C=C/c2ccc(O)c(OC)c2)ccc1O [CURCUMIN] | 54.4 | 48.6 | 55.3 | 13.5 | 70.2 | 89.8 | – | 39.4 | 59 | – | – | –

Continued, in another order:

Row | IC50 [1] [µM] | IC50 [2] [µM] | metabolised at 24 h [3] [%] | IC50 [6] [µM] | IC50 [7] [µM] | IC50 [8] [µM] | Stability [12] | Compound | IC50 [4] [µM] | IC50 [5] [µM] | Ratio IC50 [9] | Ratio IC50 [10] | Ratio IC50 [11]
11 | 44.5 | 30.2 | 11.9 | 9.24 | 22.5 | 72.6 | – | COc1cc(/C=C/C(=O)/C=C/c2ccc(O)c(OC)c2)ccc1O | 18.4 | 36.3 | 1.6 | 1.6 | 1.6
12 | 128 | 128 | – | 50.1 | 26.6 | 193 | – | CCOc1cc(/C=C/C(=O)/C=C/c2ccc(O)c(OCC)c2)ccc1O | 19 | 51.4 | – | – | –
13 | 96.4 | 85.7 | – | 28.7 | 28.9 | 124 | – | COc1cc(/C=C/C(=O)/C=C/c2cc(OC)c(O)c(OC)c2)ccc1O | 15.1 | 70.2 | – | – | –
14 | 286 | 132 | – | 203 | 33.3 | 207 | Unstable | COc1ccc(O)c(/C=C/C(=O)/C=C/c2ccc(C)c(C)c2)c1 | 23.4 | 45.5 | – | – | –
15 | 182 | 292 | – | 94.2 | 22.2 | 231 | Unstable | COc1ccc(O)c(/C=C/C(=O)/C=C/c2ccc(OC)c(OC)c2)c1 | 20.8 | 31.6 | – | – | –
16 | > 5630 | > 5630 | – | > 5630 | 39.9 | > 5630 | – | COc1ccc(/C=C/C(=O)/C=C/c2ccc(OC)c(OC)c2)cc1OC | 14.4 | 21.4 | – | – | –
17 | 193 | 177 | – | 92 | 70.4 | 204 | – | COc1ccc(/C=C/C(=O)/C=C/c2ccc(OC)c(O)c2)cc1O | 9.68 | 97.3 | – | – | –
18 | 70 | 75.1 | – | 28.1 | 43.6 | 117 | – | COc1cc(/C=C/C(=O)/C=C/c2cc(OC)c(OC)c(OC)c2)cc(OC)c1O | 10.9 | 23.7 | – | – | –
19 | 82 | 91.3 | – | 19.7 | 67.1 | 119 | – | COc1ccc(/C=C/C(=O)/C=C/c2ccc(OC)c(OC)c2)cc1O | 39.4 | 53.1 | – | – | –
